Tests used:
Human recombinant MMP-2 = target: T1, Human recombinant MMP-2 (Homo sapiens, UniProt P08253); assay: In vitro MMP inhibition, IC50 determination (fluorogenic substrate I); assay type: biochemical
T1 construct: made in house; host or cells: MMP-2-transfected p2AHT2 cells
T1 sequence (P08253 110-660): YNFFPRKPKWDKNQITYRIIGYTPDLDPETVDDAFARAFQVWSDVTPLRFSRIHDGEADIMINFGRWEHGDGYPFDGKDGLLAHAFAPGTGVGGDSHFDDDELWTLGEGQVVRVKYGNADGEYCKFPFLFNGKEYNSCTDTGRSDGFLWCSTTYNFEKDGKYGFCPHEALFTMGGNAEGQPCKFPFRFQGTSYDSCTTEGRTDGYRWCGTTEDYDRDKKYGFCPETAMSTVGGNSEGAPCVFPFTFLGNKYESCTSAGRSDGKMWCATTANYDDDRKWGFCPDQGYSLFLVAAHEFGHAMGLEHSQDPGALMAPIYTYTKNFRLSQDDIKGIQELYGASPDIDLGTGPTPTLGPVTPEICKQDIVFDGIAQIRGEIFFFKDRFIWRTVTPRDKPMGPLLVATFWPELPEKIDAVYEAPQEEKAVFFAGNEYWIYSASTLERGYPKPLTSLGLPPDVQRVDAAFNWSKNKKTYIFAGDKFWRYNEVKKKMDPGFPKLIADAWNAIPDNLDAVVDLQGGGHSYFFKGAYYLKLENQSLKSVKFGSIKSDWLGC
Outline: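 APMA- or trypsin-activated recombinant MMP-2 was incubated at room temperature with serial inhibitor dilutions in Tris buffer pH 7.5 (100 mM NaCl, 10 mM CaCl2, 0.05% Brij), with DMSO from 1% stocks, and 4 μM substrate I. Cleavage was read by fluorescence at 328/415 nm; IC50 was taken from the loss of fluorescence versus inhibitor concentration.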

Human recombinant MMP-13 = target: T2, Human recombinant MMP-13 (Homo sapiens, UniProt P45452); assay: as above; assay type: biochemical
T2 construct: made in house; host or cells: baculovirus / insect cells
Outline: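 Fluorescence at 415 nm (excitation 328 nm) reports Gly-Leu cleavage of 4 μM quenched methoxycoumarin peptide substrate I. Human recombinant MMP-13, activated by trypsin or APMA, was incubated at room temperature with varied inhibitor concentrations in pH 7.5 Tris/NaCl/CaCl2 buffer; IC50 derived from reduced fluorescence.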

[1] = value outside parentheses (Ki in parenthesis)

IC50 (Human recombinant MMP-2; [1]) [nM] | IC50 (Human recombinant MMP-13; [1]) [nM] | IC50 (Human recombinant MMP-2; value outside parentheses) [nM] | IC50 (Human recombinant MMP-13; value outside parentheses) [nM] | Compound
251 | 114 | – | – | CC(=O)N1CC[C@@H](Oc2ccc(S(=O)(=O)C3(C(=O)NO)CCOCC3)cc2)C1 [Example 427]
20 | 1.4 | – | – | COc1ccc(S(=O)(=O)CCCCOc2ccc(S(=O)(=O)C3(C(=O)NO)CCOCC3)cc2)cc1 [Example 428]
2700 | 195 | – | – | COc1ccc(SCC(C)(C)COc2ccc(S(=O)(=O)C3(C(=O)NO)CCOCC3)cc2)cc1 [Example 430]
115 | 4 | – | – | COc1ccc(S(=O)(=O)C[C@@H](C)COc2ccc(S(=O)(=O)C3(C(=O)NO)CCOCC3)cc2)cc1 [Example 431]
7 | 1.5 | – | – | COc1ccc(SC[C@@H](C)COc2ccc(S(=O)(=O)C3(C(=O)NO)CCOCC3)cc2)cc1 [Example 432]
220 | 7 | – | – | COc1ccc(S(=O)(=O)C[C@H](C)COc2ccc(S(=O)(=O)C3(C(=O)NO)CCOCC3)cc2)cc1 [Example 433]
1.1 | 0.6 | – | – | COc1ccc(SC[C@H](C)COc2ccc(S(=O)(=O)C3(C(=O)NO)CCOCC3)cc2)cc1 [Example 434]
8.9 | 7.6 | – | – | O=C(NO)C1(S(=O)(=O)c2ccc(OCCCOc3ccccc3C(F)(F)F)cc2)CCOCC1 [Example 444]
76 | 6.6 | – | – | CCCCOc1ccc(OCCCOc2ccc(S(=O)(=O)C3(C(=O)NO)CCOCC3)cc2)cc1 [Example 446]
4.7 | 9 | – | – | O=C(NO)C1(S(=O)(=O)c2ccc(OCCCCO)cc2)CCOCC1 [Example 451]
2.2 | 14.8 | – | – | O=C(NO)C1(S(=O)(=O)c2ccc(OCCCCCO)cc2)CCOCC1 [Example 452]
900 | 690 | – | – | COCC(C)(C)COc1ccc(S(=O)(=O)C2(C(=O)NO)CCOCC2)cc1 [Example 455]
425 | 350 | – | – | CCOCC(C)(C)COc1ccc(S(=O)(=O)C2(C(=O)NO)CCOCC2)cc1 [Example 456]
46 | 1.4 | – | – | O=C(NO)C1(S(=O)(=O)c2ccc(OCCCCCc3ccc4ccccc4c3)cc2)CCOCC1 [Example 464]
1.3 | 2 | – | – | C=CCCCOc1ccc(S(=O)(=O)C2(C(=O)NO)CCOCC2)cc1 [Example 481]
3300 | 40 | – | – | COC(=O)c1ccccc1S(=O)(=O)N1CC(Oc2ccc(S(=O)(=O)C3(C(=O)NO)CCOCC3)cc2)C1 [Example 482]
640 | 12 | – | – | COc1ccc(OC)c(S(=O)(=O)N2CC(Oc3ccc(S(=O)(=O)C4(C(=O)NO)CCOCC4)cc3)C2)c1 [Example 484]
4000 | 64 | – | – | COc1ccc(OC)c(S(=O)(=O)NCC(CCl)Oc2ccc(S(=O)(=O)C3(C(=O)NO)CCOCC3)cc2)c1 (stereo not drawn) [Example 485]
– | – | 242 | 8.4 | COc1cc2c(cc1OC)CN(C(=O)NCCCOc1ccc(S(=O)(=O)C3(C(=O)NO)CCOCC3)cc1)CC2 [Example 496]
– | – | 1450 | 23.5 | O=C(NCCCOc1ccc(S(=O)(=O)C2(C(=O)NO)CCOCC2)cc1)N1CCOCC1 [Example 497]
– | – | 160 | 14.8 | COc1ccc(NC(=O)NCCCOc2ccc(S(=O)(=O)C3(C(=O)NO)CCOCC3)cc2)c(C)c1 [Example 498]
– | – | 62 | 5.8 | O=C(NO)C1(S(=O)(=O)c2ccc(OCCc3cccc(-c4cncnc4)c3)cc2)CCOCC1 [Example 521]
– | – | 7.5 | 1.5 | CCN1CCC(C(=O)NO)(S(=O)(=O)c2ccc(OCCCSc3nc4ccccc4o3)cc2)CC1 [Example 525]
– | – | 145 | 19.4 | O=C(Cc1nn[nH]n1)NCCOc1ccc(S(=O)(=O)C2(C(=O)NO)CCOCC2)cc1 [Example 564]
– | – | 14 | 1.6 | O=C(Cc1nnn(Cc2ccccc2)n1)NCCOc1ccc(S(=O)(=O)C2(C(=O)NO)CCOCC2)cc1 [Example 565]
– | – | 65.7 | 18.8 | Cn1cnc(CC(=O)NCCOc2ccc(S(=O)(=O)C3(C(=O)NO)CCOCC3)cc2)c1 [Example 566]
– | – | 21 | 1.5 | O=C(NO)C1(S(=O)(=O)c2ccc(OCCCc3nnc(-c4ccncc4)o3)cc2)CCOCC1 [Example 568]

IC50 (Human recombinant MMP-2; [1]) [nM] | IC50 (Human recombinant MMP-13; [1]) [nM] | IC50 (Human recombinant MMP-2; value outside parentheses) [nM] | IC50 (Human recombinant MMP-13; value outside parentheses) [nM] | Compound
– | – | 11.9 | 1.6 | O=C(CCCOc1ccc(S(=O)(=O)C2(C(=O)NO)CCOCC2)cc1)Nc1cccc(-c2ccccc2)c1 [Example 571]
– | – | 37.3 | 4.7 | CC(C)(C)c1cccc(NC(=O)CCCOc2ccc(S(=O)(=O)C3(C(=O)NO)CCOCC3)cc2)c1 [Example 572]
– | – | 1710 | 75.1 | O=C(NO)C1(S(=O)(=O)c2ccc(OCCCc3cc(C(F)(F)F)cc(C(F)(F)F)c3)cc2)CCOCC1 [Example 573]
– | – | 8.4 | 2 | O=C(NO)C1(S(=O)(=O)c2ccc(OCCCc3cccnc3)cc2)CCOCC1 [Example 575]
– | – | 48.2 | 1.2 | O=C(CCCOc1ccc(S(=O)(=O)C2(C(=O)NO)CCOCC2)cc1)N1CCc2ccccc21 [Example 577]
– | – | 15.7 | 1.6 | CC(C)Oc1cccc(NC(=O)CCCOc2ccc(S(=O)(=O)C3(C(=O)NO)CCOCC3)cc2)c1 [Example 583]
– | – | 85.4 | 4 | COc1cc(CCCOc2ccc(S(=O)(=O)C3(C(=O)NO)CCOCC3)cc2)cc(OC)c1 [Example 585]
– | – | 10.1 | 0.6 | CC(=O)c1cccc(CCCOc2ccc(S(=O)(=O)C3(C(=O)NO)CCOCC3)cc2)c1 [Example 586]
– | – | 94.9 | 15 | COc1ccc(C(=N)NCCCOc2ccc(S(=O)(=O)C3(C(=O)NO)CCOCC3)cc2)cc1 [Example 588]
– | – | 9.9 | 0.4 | O=C(NCCOc1ccc(S(=O)(=O)C2(C(=O)NO)CCOCC2)cc1)c1nc2ccccc2s1 [Example 589]
– | – | 858 | 48 | O=C(NO)C1(S(=O)(=O)c2ccc(OCCn3nnc4ccccc4c3=O)cc2)CCOCC1 [Example 590]
– | – | 336 | 38.7 | Cn1c(C(=O)NCCOc2ccc(S(=O)(=O)C3(C(=O)NO)CCOCC3)cc2)cc2ccccc21 [Example 592]
– | – | 6.5 | 15.6 | O=C(NCCSc1ccc(S(=O)(=O)C2(C(=O)NO)CCOCC2)cc1)c1cc2ccccc2[nH]1 [Example 593]
– | – | 140 | 3.8 | O=C(NO)C1(S(=O)(=O)c2ccc(OCCc3cccc(N4CCCCC4)c3)cc2)CCOCC1 [Example 594]
– | – | 471 | 12.1 | O=C(NCCSc1ccc(S(=O)(=O)C2(C(=O)NO)CCOCC2)cc1)c1cc2ccccc2s1 [Example 597]
– | – | 206 | 214 | N=C(NCCOc1ccc(S(=O)(=O)C2(C(=O)NO)CCOCC2)cc1)c1ccccc1 [Example 600]
– | – | 13.7 | 3.6 | COc1cccc(CC(=O)NCCOc2ccc(S(=O)(=O)C3(C(=O)NO)CCOCC3)cc2)c1 [Example 602]
– | – | 34 | 2.4 | COc1ccc(S(=O)(=O)NCCOc2ccc(S(=O)(=O)C3(C(=O)NO)CCOCC3)cc2)cc1 [Example 603]
– | – | 36.6 | 3.3 | O=C(NCCOc1ccc(S(=O)(=O)C2(C(=O)NO)CCOCC2)cc1)c1ccc(-c2ccccc2)cc1 [Example 604]
– | – | 44 | 3.8 | O=C(NCCSc1ccc(S(=O)(=O)C2(C(=O)NO)CCOCC2)cc1)c1ccc(-c2ccc(O)cc2)cc1 [Example 605]
– | – | 488 | 4.1 | O=C(NCCOc1ccc(S(=O)(=O)C2(C(=O)NO)CCOCC2)cc1)c1ccc(-c2cccc(C(F)(F)F)c2)o1 [Example 610]
– | – | 733 | 13.6 | O=C(NCCOc1ccc(S(=O)(=O)C2(C(=O)NO)CCOCC2)cc1)c1ccc(-c2cc(C(F)(F)F)ccc2Cl)o1 [Example 611]
– | – | 1230 | 16.1 | CC(C)CCCc1cccc(CCCOc2ccc(S(=O)(=O)C3(C(=O)NO)CCOCC3)cc2)c1 [Example 612]
– | – | 34.3 | 6.6 | CN(C)c1cccc(CCCOc2ccc(S(=O)(=O)C3(C(=O)NO)CCN(C4CC4)CC3)cc2)c1 [Example 613]
– | – | 822 | 27.5 | O=C(Cc1ccc(-c2ccc(Cl)cc2)s1)NCCOc1ccc(S(=O)(=O)C2(C(=O)NO)CCOCC2)cc1 [Example 618]
– | – | 66.2 | 1.5 | O=C(NCCOc1ccc(S(=O)(=O)C2(C(=O)NO)CCOCC2)cc1)c1cc2ccccc2s1 [Example 619]
– | – | 16.2 | 4.1 | O=C(NCCOc1ccc(S(=O)(=O)C2(C(=O)NO)CCOCC2)cc1)c1ccc(Br)s1 [Example 620]
